Test results published in patent US11547697B2, “Heterocyclic compounds and uses thereof” (MILLENNIUM PHARMACEUTICALS, INC., priority 2009, dated 2023).
Where two headings read alike, the source gives them in different places.

How the values were obtained:
p110γ = p110γ (Homo sapiens (Human), UniProt P48736); test: PI 3-Kinase (human) HTRF assay, p110γ; format: biochemical
p110δ/p85α = p110δ/p85α (Homo sapiens (Human), UniProt O00329); test: PI 3-Kinase (human) HTRF assay, p110δ/p85α; format: biochemical
p110α/p85α = p110α/p85α (Homo sapiens (Human), UniProt P42336); test: PI 3-Kinase (human) HTRF assay, p110α/p85α; format: biochemical
Protocol: An exemplary system is PI 3-Kinase (human) HTRF™ Assay from Upstate. […] Briefly, the assay is a time resolved FRET assay that indirectly measures PIP3 product formed by the activity of a PI3-K. The kinase reaction is performed in a microtitre plate (e.g., a 384 well microtitre plate). The total reaction volume is approximately 20 ul per well. In the first step, each well receives 2 ul of test compound in 20% dimethylsulphoxide resulting in a 2% DMSO final concentration. Next, approximately 14.5 ul of a kinase/PIP2 mixture (diluted in 1× reaction buffer) is added per well for a final concentration of 0.25-0.3 ug/ml kinase and 10 μM PIP2. The plate is sealed and incubated for 15 minutes at room temperature. To start the reaction, 3.5 ul of ATP (diluted in 1× reaction buffer) is added per well for a final concentration of 10 μM ATP. The plate is sealed and incubated for 1 hour at room temperature. The reaction is stopped by adding 5 ul of Stop Solution per well and then 5 ul of Detection Mix is added per well. The plate is sealed, incubated for 1 hour at room temperature, and then read on an appropriate plate reader. Data is analyzed and IC50s are generated using GraphPad Prism 5. […] For PI3K α, β, δ, and γ, the nM concentration of inhibitor to reach IC50 is provided.

recombinant mTOR = recombinant mTOR (Homo sapiens (Human), UniProt P42345); test: mTOR inhibition assay (radiometric or LanthaScreen TR-FRET); format: biochemical
Protocol: The compounds described herein can be tested against recombinant mTOR (Invitrogen) in an assay containing 50 mM HEPES, pH 7.5, 1 mM EGTA, 10 mM MgCl2, 2.5 mM, 0.01% Tween, 10 pM ATP (2.5 μCi of μ-32P-ATP), and 3 μg/mL BSA. R^at recombinant PHAS-1/4EBP1 (Calbiochem; 2 mg/mL) is used as a substrate. Reactions are terminated by spotting onto nitrocellulose, which is washed with 1M NaCl/1% phosphoric acid (approximately 6 times, 5-10 minutes each). Sheets are dried and the transferred radioactivity quantitated by phosphorimaging.
For instance, one can use Invitrogen's LanthaScreen™ Kinase assay to test the inhibitors of mTOR disclosed herein. This assay is a time resolved FRET platform that measures the phosphorylation of GFP labeled 4EBP1 by mTOR kinase. The kinase reaction is performed in a white 384 well microtitre plate. The total reaction volume is 20 ul per well and the reaction buffer composition is 50 mM HEPES pH7.5, 0.01% Polysorbate 20, 1 mM EGTA, 10 mM MnCl2, and 2 mM DTT. In the first step, each well receives 2 ul of test compound in 20% dimethylsulphoxide resulting in a 2% DMSO final concentration. Next, 8 ul of mTOR diluted in reaction buffer is added per well for a 60 ng/ml final concentration. To start the reaction, 10 ul of an ATP/GFP-4EBP1 mixture (diluted in reaction buffer) is added per well for a final concentration of 10 μM ATP and 0.5 μM GFP-4EBP1. The plate is sealed and incubated for 1 hour at room temperature. […] The plate is sealed, incubated for 1 hour at room temperature, and then read on a plate reader set up for LanthaScreen™ TR-FRET. Data is analyzed and IC50s are generated using GraphPad Prism 5.

p110β/p85α = p110β/p85α (Homo sapiens (Human), UniProt P42338); test: PI 3-Kinase (human) HTRF assay, p110β/p85α; format: biochemical
[1] = tested on: tumor cells with a PI3Kα mutation (e.g., MDA-MB-361 and T47D); test: Proliferation of tumor cells with PI3Kα mutation; format: cell-based; conditions: Homo sapiens; T47D cells; read-out: T47D proliferation IC50
[2] = in vitro, read-out: PI3K γ IC50
[3] = in vitro, read-out: PI3K δ IC50
[4] = in vitro, read-out: PI3K α IC50
[5] = in vitro, read-out: PI3K β IC50

Sequence of p110β/p85α (P42338 whole entry): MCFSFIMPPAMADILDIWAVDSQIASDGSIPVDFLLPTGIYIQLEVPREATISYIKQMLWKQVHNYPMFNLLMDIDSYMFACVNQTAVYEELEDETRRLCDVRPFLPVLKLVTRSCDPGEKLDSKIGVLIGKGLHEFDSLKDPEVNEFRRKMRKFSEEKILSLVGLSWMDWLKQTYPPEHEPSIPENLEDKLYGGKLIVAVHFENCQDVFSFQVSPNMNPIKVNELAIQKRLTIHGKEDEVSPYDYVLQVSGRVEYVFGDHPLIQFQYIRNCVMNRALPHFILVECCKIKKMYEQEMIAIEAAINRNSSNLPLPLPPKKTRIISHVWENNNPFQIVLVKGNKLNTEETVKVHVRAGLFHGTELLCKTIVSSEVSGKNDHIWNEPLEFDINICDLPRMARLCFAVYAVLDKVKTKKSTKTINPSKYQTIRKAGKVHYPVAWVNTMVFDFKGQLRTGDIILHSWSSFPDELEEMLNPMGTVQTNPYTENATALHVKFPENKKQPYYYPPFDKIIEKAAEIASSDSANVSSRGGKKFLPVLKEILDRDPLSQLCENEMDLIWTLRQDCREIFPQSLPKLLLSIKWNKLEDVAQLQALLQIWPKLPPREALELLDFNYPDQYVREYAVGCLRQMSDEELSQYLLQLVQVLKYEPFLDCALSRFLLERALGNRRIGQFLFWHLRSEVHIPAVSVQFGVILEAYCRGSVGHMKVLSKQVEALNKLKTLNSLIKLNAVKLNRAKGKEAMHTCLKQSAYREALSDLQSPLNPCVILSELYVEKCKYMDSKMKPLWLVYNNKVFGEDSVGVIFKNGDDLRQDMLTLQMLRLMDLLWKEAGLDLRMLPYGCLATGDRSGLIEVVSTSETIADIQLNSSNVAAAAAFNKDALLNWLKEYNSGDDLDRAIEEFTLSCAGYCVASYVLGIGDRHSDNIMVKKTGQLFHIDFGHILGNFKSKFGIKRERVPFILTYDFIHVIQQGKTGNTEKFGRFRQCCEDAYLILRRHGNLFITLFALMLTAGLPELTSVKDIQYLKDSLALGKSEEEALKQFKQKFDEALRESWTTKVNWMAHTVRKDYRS
Sequence of p110β/p85α (P27986 whole entry partner): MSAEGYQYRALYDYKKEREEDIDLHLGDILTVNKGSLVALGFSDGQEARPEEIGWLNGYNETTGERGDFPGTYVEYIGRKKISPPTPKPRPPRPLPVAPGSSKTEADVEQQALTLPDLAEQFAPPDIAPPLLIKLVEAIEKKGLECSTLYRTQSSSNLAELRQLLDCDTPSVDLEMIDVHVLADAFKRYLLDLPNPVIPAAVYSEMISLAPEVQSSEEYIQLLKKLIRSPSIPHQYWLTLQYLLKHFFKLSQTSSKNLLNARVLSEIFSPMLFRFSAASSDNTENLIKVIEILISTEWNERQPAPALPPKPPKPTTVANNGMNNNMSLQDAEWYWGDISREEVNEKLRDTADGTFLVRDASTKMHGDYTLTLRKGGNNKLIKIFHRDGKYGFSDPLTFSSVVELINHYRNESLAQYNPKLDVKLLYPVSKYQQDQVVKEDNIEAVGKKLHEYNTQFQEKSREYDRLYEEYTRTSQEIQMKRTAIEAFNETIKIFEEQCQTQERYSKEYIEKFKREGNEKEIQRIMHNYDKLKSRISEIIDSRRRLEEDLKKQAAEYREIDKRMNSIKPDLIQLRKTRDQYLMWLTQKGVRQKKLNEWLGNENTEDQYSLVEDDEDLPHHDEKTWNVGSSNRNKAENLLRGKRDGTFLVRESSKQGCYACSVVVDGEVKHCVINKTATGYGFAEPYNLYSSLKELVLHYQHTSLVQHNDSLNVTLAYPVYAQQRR
Sequence of recombinant mTOR (P42345 1360-2549): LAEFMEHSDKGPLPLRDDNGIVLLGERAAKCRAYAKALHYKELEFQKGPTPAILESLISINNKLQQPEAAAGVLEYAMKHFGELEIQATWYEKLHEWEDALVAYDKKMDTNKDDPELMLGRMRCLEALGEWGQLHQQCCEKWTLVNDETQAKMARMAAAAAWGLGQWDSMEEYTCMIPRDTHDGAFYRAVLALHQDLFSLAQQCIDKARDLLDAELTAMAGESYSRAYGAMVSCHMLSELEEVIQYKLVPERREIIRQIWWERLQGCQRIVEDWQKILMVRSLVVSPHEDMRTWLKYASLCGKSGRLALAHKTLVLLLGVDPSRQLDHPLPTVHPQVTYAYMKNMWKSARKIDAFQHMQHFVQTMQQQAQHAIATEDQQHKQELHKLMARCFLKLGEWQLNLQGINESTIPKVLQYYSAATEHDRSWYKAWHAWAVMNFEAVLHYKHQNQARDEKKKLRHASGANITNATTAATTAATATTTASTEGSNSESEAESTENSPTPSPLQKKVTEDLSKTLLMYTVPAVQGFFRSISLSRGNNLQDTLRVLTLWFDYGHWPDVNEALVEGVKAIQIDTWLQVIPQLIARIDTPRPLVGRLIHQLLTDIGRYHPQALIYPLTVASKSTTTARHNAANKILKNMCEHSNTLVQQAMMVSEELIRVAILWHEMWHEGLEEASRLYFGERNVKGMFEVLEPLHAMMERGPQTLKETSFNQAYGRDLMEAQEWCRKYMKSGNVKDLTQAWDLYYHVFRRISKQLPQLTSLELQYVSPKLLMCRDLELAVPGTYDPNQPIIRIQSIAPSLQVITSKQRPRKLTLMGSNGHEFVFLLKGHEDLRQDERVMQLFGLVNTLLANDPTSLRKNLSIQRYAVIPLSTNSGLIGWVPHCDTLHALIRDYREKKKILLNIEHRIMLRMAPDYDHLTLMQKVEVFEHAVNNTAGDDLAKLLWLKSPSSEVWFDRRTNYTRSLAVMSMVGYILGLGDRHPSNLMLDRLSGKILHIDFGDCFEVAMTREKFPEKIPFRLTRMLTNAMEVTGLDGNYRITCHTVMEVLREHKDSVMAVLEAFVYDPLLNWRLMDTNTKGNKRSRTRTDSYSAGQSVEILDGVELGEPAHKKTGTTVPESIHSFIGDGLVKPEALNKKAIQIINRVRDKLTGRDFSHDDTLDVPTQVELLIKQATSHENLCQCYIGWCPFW
Sequence of p110δ/p85α (O00329 whole entry): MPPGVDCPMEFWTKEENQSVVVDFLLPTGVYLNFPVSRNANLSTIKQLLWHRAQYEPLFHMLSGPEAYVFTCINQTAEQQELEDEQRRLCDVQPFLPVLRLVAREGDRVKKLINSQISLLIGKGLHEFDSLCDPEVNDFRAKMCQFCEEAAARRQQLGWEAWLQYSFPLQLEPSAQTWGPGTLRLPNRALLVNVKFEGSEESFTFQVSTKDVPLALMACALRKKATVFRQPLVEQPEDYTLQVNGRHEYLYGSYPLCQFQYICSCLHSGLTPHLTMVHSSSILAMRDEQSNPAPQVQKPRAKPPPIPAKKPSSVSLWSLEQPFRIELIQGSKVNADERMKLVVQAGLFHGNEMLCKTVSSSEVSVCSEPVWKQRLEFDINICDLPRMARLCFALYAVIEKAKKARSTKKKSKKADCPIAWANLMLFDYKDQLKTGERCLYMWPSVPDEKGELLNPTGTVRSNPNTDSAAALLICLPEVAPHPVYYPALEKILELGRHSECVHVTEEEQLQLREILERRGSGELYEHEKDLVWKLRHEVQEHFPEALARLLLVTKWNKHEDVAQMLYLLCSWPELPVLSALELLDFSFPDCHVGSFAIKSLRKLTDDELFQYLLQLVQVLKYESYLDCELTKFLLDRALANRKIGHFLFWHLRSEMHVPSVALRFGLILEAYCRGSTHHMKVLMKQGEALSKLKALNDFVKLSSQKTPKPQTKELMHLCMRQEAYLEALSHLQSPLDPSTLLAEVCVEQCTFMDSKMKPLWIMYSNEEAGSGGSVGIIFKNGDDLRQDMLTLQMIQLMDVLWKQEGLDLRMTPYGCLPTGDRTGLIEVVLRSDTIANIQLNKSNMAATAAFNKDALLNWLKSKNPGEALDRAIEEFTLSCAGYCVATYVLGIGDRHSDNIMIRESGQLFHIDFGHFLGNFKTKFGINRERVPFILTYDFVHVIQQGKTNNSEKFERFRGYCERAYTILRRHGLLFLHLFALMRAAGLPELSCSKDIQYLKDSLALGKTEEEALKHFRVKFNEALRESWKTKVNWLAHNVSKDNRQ
Sequence of p110δ/p85α (P27986 whole entry partner): as the sequence (P27986 whole entry partner) above

Structure (SMILES)	IC50 (p110γ; [2]) [nM]	IC50 (p110δ/p85α; [3]) [nM]	IC50 (p110α/p85α; [4]) [nM]	IC50 (recombinant mTOR; in vitro, read-out: MTORC IC50) [nM]	IC50 (p110β/p85α; [5]) [nM]	IC50 [1] [nM]	IC50 (p110γ; read-out: PI3K γ In Vitro IC50) [nM]	IC50 (p110δ/p85α; read-out: PI3K δ In Vitro IC50) [nM]	IC50 (p110α/p85α; read-out: PI3K α In Vitro IC50) [nM]	IC50 (recombinant mTOR; read-out: MTORC In Vitro IC50) [nM]	IC50 (p110β/p85α; read-out: PI3K β In Vitro IC50) [nM]
Nc1nc2cc(-c3ccc4nc(N)sc4c3)ccc2o1 [compound 232]	< 100	< 10000	< 1000	< 10000	< 1000	–	–	–	–	–	–
CC(=O)Nc1ncc(-c2ccc3oc(N)nc3c2)s1 [compound 235]	< 10000	< 10000	< 10000	< 10000	–	–	–	–	–	–	–
CC(C)Oc1nc(-c2ccc3oc(N)nc3c2)cnc1N [compound 237]	< 10000	–	< 10000	< 1000	< 10000	–	–	–	–	–	–
Nc1nc2cc(-c3ccc4oc(N)nc4c3)ccc2o1 [compound 240]	< 100	< 10000	< 1000	< 10000	–	–	–	–	–	–	–
Nc1nc2cc(-c3ccc4nc(N)oc4c3)ccc2o1 [compound 241]	< 100	< 1000	< 1000	< 10000	–	–	–	–	–	–	–
Nc1nc2cc(-c3ccc4ncc(N5CC[C@H](O)C5)nc4c3)ccc2o1 [compound 262]	< 1000	–	< 100	< 10000	< 1000	< 10000	–	–	–	–	–
Nc1nc2cc(-c3ccc4ncc(N5CC(N6CCOCC6)C5)nc4c3)ccc2o1 [compound 273]	< 10000	–	< 100	< 1000	–	< 1000	–	–	–	–	–
CN1CCN(C2CN(C(=O)c3cnc4ccc(-c5ccc6oc(N)nc6c5)cn34)C2)CC1 [compound 303]	–	< 10000	< 100	< 10000	–	< 1000	–	–	–	–	–
Nc1nc2cc(-c3ccc4ncc(N5CC(N6CCN(C7CC7)CC6)C5)nc4c3)ccc2o1 [compound 313]	< 10000	< 10000	< 100	< 10000	< 10000	–	–	–	–	–	–
Nc1nc2cc(-c3ccc4ncc(N5CC(N6CC[C@@H](O)C6)C5)nc4c3)ccc2o1 [compound 315]	< 10000	< 10000	< 100	< 1000	< 10000	–	–	–	–	–	–
Nc1nc2cc(-c3ccc4ncc(N5CC(n6cccn6)C5)nc4c3)ccc2o1 [compound 318]	< 1000	–	< 100	< 1000	< 10000	–	–	–	–	–	–
COC(=O)N1CCC(n2ncc3c(N4CCOCC4)nc(-c4ccc5oc(N)nc5c4)nc32)CC1 [compound 330]	–	–	< 1000	< 1000	< 10000	–	–	–	–	–	–
Nc1nc2cc(-c3ccc4ncc(N5CCC(n6ccnc6)CC5)nc4c3)ccc2o1 [compound 345]	< 1000	< 1000	< 100	< 10000	< 1000	–	–	–	–	–	–
Nc1nc2cc(-c3nc(N4CCOCC4)c4cnn(C5CCNCC5)c4n3)ccc2o1 [compound 348]	< 1000	< 10000	< 1000	< 1000	< 100	–	–	–	–	–	–
CS(=O)(=O)N1CCN(C2CCN(c3cnc4ccc(-c5ccc6oc(N)nc6c5)cc4n3)CC2)CC1 [compound 377]	< 1000	< 10000	< 100	< 10000	< 10000	–	–	–	–	–	–
CN(C)[C@@H]1CCN(c2cnc3ccc(-c4ccc5oc(N)nc5c4)cc3n2)C1 [compound 378]	< 10000	< 10000	< 100	< 1000	< 100	–	–	–	–	–	–
CN1CCN([C@@H]2CCN(c3cnc4ccc(-c5ccc6oc(N)nc6c5)cc4n3)C2)CC1 [compound 379]	–	< 10000	< 100	< 10000	< 1000	–	–	–	–	–	–
Nc1nc2cc(-c3ccc4ncc(N5CCNC(C(F)(F)F)C5)nc4c3)ccc2o1 (stereo not shown) [compound 384]	< 1000	< 10000	< 100	< 1000	< 1000	–	–	–	–	–	–
CC1(C)CN(C2CN(c3cnc4ccc(-c5ccc6oc(N)nc6c5)cc4n3)C2)CCN1 [compound 388]	< 1000	< 1000	< 100	< 100	< 1000	–	–	–	–	–	–
COc1ncc(-c2ccc3ncc(C(=O)N4CCOCC4)n3c2)cc1NS(=O)(=O)c1ccc(F)cc1F [compound 417]	–	–	–	–	–	–	< 100	< 100	< 100	< 1000	< 100
CS(=O)(=O)Nc1cc(-c2ccc3ncc(C(=O)N4CCOCC4)n3c2)cnc1Cl [compound 418]	–	–	–	–	–	–	< 100	< 100	< 100	< 100	< 100
O=C(c1cnc2ccc(-c3cnc(Cl)c(NS(=O)(=O)c4ccc(F)cc4F)c3)cn12)N1CCOCC1 [compound 419]	–	–	–	–	–	–	< 100	< 100	< 100	< 1000	< 100
